The text below walks through data of patent publication US20030207813A1, “Retroviral protease inhibitor combinations” (priority 1995, published 2003).

Converted amounts (≈) assume the structure as drawn.

For the first experiment, the system named is RFR (resistant strains selected from RF against Example 1). The experiment in a line: CEM-T4 cell infection assay, reverse transcriptase readout, resistant isolate RFR. It is filed as cell-based, HIV-1. The note with it: Human immunodeficiency virus 1, CEM-T4, 168 h, Table 4, CEM-T4 cells, 7 days, read-out: Virus Isolate (EC50 ng/mL) RFR. The source says:
RF represents the HIV-1 strain HIV-LRF and RFR represents a mixture of resistant strains obtained by selection of RF against the compound of Example 1. RFR comprises a mixture of viral strains having protease genotypes of G48V (14/40 clones); G48V, V82A (18/40 clones); G48V, L90S (2/40 clones); G48V, 154T, V82A (1/40 clones); G48M (1/40 clones); G48V, Q61H (1/40 clones); V13I, G48V (1/40 clones); G48V, F53L, V82A (1/40 clones); and G48V, V82A, C95Y (1/40 clones). RFR2 represents a mixture of resistant strains obtained by cloning RFR by three rounds of growth at limiting dilution. RFR2 comprises a mixture of viral strains having protease genotypes of G48V, V82A (13/15 clones); G17E, G48V, V82A (1/15 clones); and G48V, V82A, N37D, N88D (1/15 clones). RFRR represents a mixture of resistant strains obtained by selection of RF against the compounds of Examples 1 and 2 and then cloning by three rounds of growth at limiting dilution. RFRR comprises a mixture of viral strains having protease genotypes of G48V, 154T, L63P, V82A (7/9 clones); G48V, 154T, L63P, V82A, N88S (1/9 clones); and G48V, 154T, L63P, G73M, V82A (1/9 clones). SF162 represents the HIV-1 strain SF-162 and SF162R represents a mixture of resistant strains obtained by selection of SF162 against the compound of Example 1. SF162R comprises a mixture of viral strains having protease genotypes of M461, F53L, L63P, A71V, N88D (2/3 clones); and M46I, F53L, L63P, A71V, N88D, Q92R (1/3 clones). 89-959 represents the HIV-1 strain 89-959 and 89-959R represents a mixture of resistant strains obtained by selection of 89-959 against the compound of Example 2. 89-959R comprises a mixture of viral strains having protease genotypes of N88S (4/5 clones); and D25N, T26A, D30N, D37N, R41K, G73D, R87K, N88S (1/4 clones). NL4 represents the HIV-1 strain HIV-1NL4-3. NL4(G48V) represents a strain having a synthetically generated site-directed mutation in the protease from glycine to valine at amino acid position number 48. NL4(I84V) represents a strain having a synthetically generated site-directed mutation in the protease from isoleucine to valine at amino acid position number 84. NL4(R8Q,M46I) represents a strain having synthetically generated site-directed mutations in the protease from arginine to glutamine at amino acid position number 8 and methionine to isoleucine at amino acid position number 46. NL4(P22-538) represents a mixture of resistant strains obtained by selection of HIV-1NL4-3 against the compound of Example 10 after 22 passages comprising protease genotypes M46I, L63P, A71V, V82F, I84V (4/10); M46I, L63P, V82F, I84V (3/10); and M46I, A71V, V82F, I84V (3/10). NL4(P37-538) represents resistant strains obtained by selection of HIV-1NL4-3 against the compound of Example 10 after 37 passages comprising protease genotype M46I, L63P, A71V, 184A. NL4(538/524) represents resistant strains obtained by selection of NL4(P22-538) against the compound of Example 5 after 24 passages comprising protease genotype M46I, L63P, A71V, 184A. NL4(538/P7-AG) represents a mixture of resistant strains obtained by selection of NL4(P22-538) against the compound of Example 12 after 7 passages comprising protease genotypes M46I, L63P, A71V, 184A; and V321, V82I. NL4(538/P24-AG) represents resistant strains obtained by selection of NL4(P22-538) against the compound of Example 12 after 24 passages comprising protease genotype M46I, L63P, A71V, 184A. NLA(P19-003) represents resistant strains obtained by selection of HIV-1^NL4-3 against the compound of Example 9 after 19 passages comprising protease genotype R8K, M46I. NL4(P34-003) represents resistant strains obtained by selection of HIV-1^NL4-3 against the compound of Example 9 after 34 passages comprising protease genotype R8K, M46I, L63P, A71V, L90M.
The viral isolate resistance results summarized in Tables 4-6 were generated according to the following assay procedure or minor modifications thereof. Assays are performed in 96-well tissue culture plates. […]
For the compound `CNCC(=O)N[C@H](C(=O)N[C@@H](Cc1ccccc1)[C@H](O)CN(CCC(C)C)C(=O)NC(C)(C)C)C(C)(C)C` [Example 2, (2R,3S)-3-(N-methylaminoacetyl-L-tert-butylglycinyl)amino-1-(N-isoamyl-N-(tert-butylcarbamoyl))amino-4-phenyl-2-butanol], the EC50 was found to be 8 ng/mL (≈ 0.015 µM).
As to `CC(C)(C)NC(=O)[C@@H]1CC2CCCC[C@@H]2CN1C[C@@H](O)[C@H](Cc1ccccc1)NC(=O)[C@H](CC(N)=O)NC(=O)c1ccc2ccccc2n1` (stereo in doubt) [Example 6, N-tert-Butyl decahydro-2-[2(R)-hydroxy-4-phenyl-3(S)-[[N-(2-quinolylcarbonyl)-L-asparaginyl]amino]butyl]-(4aR,8aS)-isoquinoline-3(S)-carboxamide], the EC50 stood at 15 ng/mL (≈ 0.0224 µM).
With `CC(C)CN(C[C@@H](O)[C@H](Cc1ccccc1)NC(=O)[C@H](CC(N)=O)NC(=O)c1ccc2ccccc2n1)C(=O)NC(C)(C)C` (relative stereo) [Example 1, [1S-[1R*(R*),2S*]]-N^1-[3-[[[(1,1-dimethylethyl)amino]carbonyl])2-methylpropyl)amino]-2-hydroxy-1-(phenylmethyl)propyl]-2-[(2-quinolinylcarbonyl)amino]-butanediamide], the EC50 came to 223 ng/mL (≈ 0.369 µM).
With `CC(C)(C)NC(=O)[C@@H]1CN(Cc2cccnc2)CCN1C[C@@H](O)C[C@@H](Cc1ccccc1)C(=O)N[C@H]1c2ccccc2C[C@H]1O` [Example 5, N-(2(R)-Hydroxy-1(S)-indanyl)-2(R)-phenylmethyl-4(S)-hydroxy-5-(1-(4-(3-pyridylmethyl)-2(S)-N′-(t-butylcarboxamido)-piperazinyl))-pentaneamide], the EC50 amounted to 7 ng/mL (≈ 0.0114 µM).

The same experiment, now with this note: Human immunodeficiency virus 1, CEM-T4, 168 h, Table 5, CEM-T4 cells, 7 days, read-out: Virus Isolate (EC50 ng/mL) RFR.
`CC(C)CN(C[C@@H](O)[C@H](Cc1ccccc1)NC(=O)[C@H](CC(N)=O)NC(=O)c1ccc2ccccc2n1)S(=O)(=O)NC(C)(C)C` [Example 8, N-[3-[N^2-[N^1-(1,1-dimethylethyl)aminosulfonyl]-N^2-(2-methylpropyl)amino]-2R-hydroxy-1S-(phenylmethyl)propyl]-2S-[(2-quinolinylcarbonyl)amino]butanediamide]: the EC50 came out at 1 ng/mL (≈ 0.00156 µM).
The same measure, in the same setting: the result for `CC(C)CN(C[C@@H](O)[C@H](Cc1ccccc1)NC(=O)[C@H](CC(N)=O)NC(=O)c1ccc2ccccc2n1)C(=O)NC(C)(C)C` (relative stereo) [Example 1, [1S-[1R*(R*),2S*]]-N^1-[3-[[[(1,1-dimethylethyl)amino]carbonyl])2-methylpropyl)amino]-2-hydroxy-1-(phenylmethyl)propyl]-2-[(2-quinolinylcarbonyl)amino]-butanediamide] reads 394 ng/mL (≈ 0.652 µM).
Same read-out and setting: the result for `CC(C)CCN(C[C@@H](O)[C@H](Cc1ccccc1)NC(=O)[C@H](CC(N)=O)NC(=O)c1ccc2ccccc2n1)C(=O)NC(C)(C)C` (relative stereo) [Example 7, [1S-[1R*(R*),2S*]]-N^1-[3-[[[(1,1-dimethylethyl)amino]carbonyl](3-methylbutyl)amino]-2-hydroxy-1-(phenylmethyl)propyl]-2-[(2-quinolinylcarbonyl)amino]-butanediamide] reads 78 ng/mL (≈ 0.126 µM).
